# Paper PMC8667944 (Journal of Enzyme Inhibition and Medicinal Chemistry, 2021)
# Target: T1, NgCA (Neisseria gonorrhoeae, UniProt Q50940)
# T1 construct: gene cah; recombinant enzyme obtained in-house
# T1 sequence (Q50940 27-252): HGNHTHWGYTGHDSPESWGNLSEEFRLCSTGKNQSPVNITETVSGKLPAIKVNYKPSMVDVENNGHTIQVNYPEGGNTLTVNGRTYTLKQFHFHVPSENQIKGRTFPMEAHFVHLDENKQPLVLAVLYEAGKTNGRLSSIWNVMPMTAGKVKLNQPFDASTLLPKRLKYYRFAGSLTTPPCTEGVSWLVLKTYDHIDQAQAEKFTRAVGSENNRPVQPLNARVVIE
# Assay: stopped-flow CO2 hydration assay
# Format: biochemical
# Conditions: not given
row,SMILES,Ki [nM]
1,"S=C(S)N1CCCCC1 [compound 17, 17]",731
2,"S=C(S)N1CCNCC1 [compound 28, 28]",276

# Same assay, conditions: read-out: Ki (nM)^a / NgCA
row,SMILES,Ki [nM]
1,"OCCCCNC(=S)S [compound 4, 4]",438
2,"N#CC1(c2ccccc2)CCN(C(=S)S)CC1 [compound 30, 30]",365
3,"CC(C)(C)OC(=O)NC1CCCN(C(=S)S)C1 (stereo not drawn) [compound 6, 6]",538
4,"O=C(O)[C@@H]1CCCN(C(=S)S)C1 [compound 13, 13]",242
5,"O=C(CN1CCN(C(=S)S)CC1)NC1CCCCC1 [compound 20, 20]",84.4
6,"S=C(S)N[C@H]1CN2CCC1CC2 [compound 16, 16]",518
7,"CC(=O)NC1CCCN(C(=S)S)C1 (stereo not drawn) [compound 15, 15]",451
8,"CCCCN(CC)C(=S)S [compound 27, 27]",577
9,"S=C(S)NC1CN2CCC1CC2 (racemic) [compound 12, 12]",482
10,"CN(Cc1ccccc1)C(=S)S [compound 24, 24]",654
11,"S=C(S)N1CCOCC1 [compound 23, 23]",483
12,"O=C(O)C1COCCN1C(=S)S (stereo not drawn) [compound 18, 18]",672
13,"CCCCN(CCCC)C(=S)S [compound 25, 25]",460
14,"S=C(S)N[C@@H]1CN2CCC1CC2 [compound 11, 11]",473
15,"S=C(S)NCCc1ccccc1 [compound 2, 2]",259
16,"OCCCNC(=S)S [compound 5, 5]",413
17,"OC1CCCN(C(=S)S)C1 (stereo not drawn) [compound 10, 10]",367
18,"CC1COCCN1C(=S)S (stereo not drawn) [compound 19, 19]",723
19,"OCCCCCNC(=S)S [compound 21, 21]",454
20,"O=C(O)C1CCCCN1C(=S)S (stereo not drawn) [compound 7, 7]",827
21,"CN(C)CCNC(=S)S [compound 3, 3]",568
22,"CCCN(CCC)C(=S)S [compound 26, 26]",522
23,"CC(C)CN(CC(C)C)C(=S)S [compound 22, 22]",554
24,"O=C(O)C1CCN(C(=S)S)CC1 [compound 8, 8]",514
25,"NS(=O)(=O)c1ccc(CCNC(=S)S)cc1 [compound 1, 1]",83.7
26,"O=C(O)C1CCCN(C(=S)S)C1 (racemic) [compound 9, 9]",297
27,"S=C(S)N1CCN(C(=S)S)CC1 [compound 29, 29]",136
28,"O=C(O)[C@H]1CCCN(C(=S)S)C1 [compound 14, 14]",335
